# Source: PubChem BioAssay (NCI)
#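 Growth conditions: 96-well plates. Treatment: test compound, 48 hours, 5 concentrations. Analysis: linear interpolation between bracketing concentrations; unreached endpoints set to highest concentration. The concentration for 50% growth inhibition is given as GI50. The concentration for full growth arrest is given as TGI.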
# What was measured:
# Experiment in all cases: NCI tumour cell line growth inhibition, 48 h
# [1] = tested on: U251 CNS
# [2] = tested on: MDA-MB-231 breast
# [3] = tested on: RPMI-8226 leukemia
# [4] = tested on: HOP-62 NSCLC
# [5] = tested on: IGROV1 ovarian
# [6] = tested on: A498 renal
# [7] = tested on: MDA-MB-468 breast
# [8] = tested on: T-47D breast
# [9] = tested on: NCI-H23 lung
# [10] = tested on: NCI/ADR-RES ovarian
# [11] = tested on: HCT-116 colon
# [12] = tested on: EKVX NSCLC
# [13] = tested on: SNB-19 CNS
# [14] = tested on: SK-OV-3 ovarian
# [15] = tested on: OVCAR-5 ovarian
# [16] = tested on: SN12C renal
# [17] = tested on: PC-3 prostate
# [18] = tested on: SR leukemia
# [19] = tested on: HOP-92 NSCLC
# [20] = tested on: SF-295 CNS
# [21] = tested on: ACHN renal
# [22] = tested on: OVCAR-8 ovarian
# [23] = tested on: LOX IMVI melanoma
# [24] = tested on: HT29 colon
# [25] = tested on: MALME-3M melanoma
# [26] = tested on: HCC-2998 colon
# [27] = tested on: MCF7 breast
# [28] = tested on: KM12 colon
# [29] = tested on: NCI-H522 lung
# [30] = tested on: HCT-15 colon
# [31] = tested on: UO-31 renal
# [32] = tested on: HS 578T breast
# [33] = tested on: NCI-H460 lung
# [34] = tested on: MOLT-4 leukemia
# [35] = tested on: TK-10 renal
# [36] = tested on: MDA-MB-435
# [37] = tested on: NCI-H226 lung
# [38] = tested on: M14 melanoma
# [39] = tested on: A549 NSCLC
# [40] = tested on: SF-268 CNS
# [41] = tested on: SF-539 CNS
# [42] = tested on: CAKI-1 renal
# [43] = tested on: SW-620 colon
# [44] = tested on: K-562 leukemia
# [45] = tested on: OVCAR-3 ovarian
# [46] = tested on: UACC-62 melanoma
# [47] = tested on: CCRF-CEM leukemia
# [48] = tested on: 786-0 renal
# [49] = tested on: SK-MEL-28 melanoma
# [50] = tested on: HL-60(TB) leukemia
# [51] = tested on: OVCAR-4 ovarian
# [52] = tested on: RXF 393 renal
# [53] = tested on: DU-145 prostate
smiles,measurement,setting,value
COc1ccc(NC(=O)Nc2nc3ccc([N+](=O)[O-])cc3s2)cc1,GI50,[1],2.24 µM
same,TGI,[1],5.76 µM
same,GI50,[2],2.76 µM
same,TGI,[2],7.86 µM
same,GI50,[3],1.83 µM
same,TGI,[3],5.97 µM
same,GI50,[4],2.92 µM
same,TGI,[4],10.7 µM
same,GI50,[5],3.37 µM
same,TGI,[5],15.3 µM
same,GI50,[6],1.66 µM
same,TGI,[6],4.83 µM
same,GI50,[7],1.66 µM
same,TGI,[7],4.17 µM
same,GI50,[8],1.67 µM
same,TGI,[8],6.66 µM
same,GI50,[9],2.22 µM
same,TGI,[9],6.64 µM
same,GI50,[10],2.62 µM
same,TGI,[10],8.16 µM
same,GI50,[11],2.52 µM
same,TGI,[11],7.67 µM
same,GI50,[12],2.66 µM
same,TGI,[12],7.96 µM
same,GI50,[13],2.85 µM
same,TGI,[13],16.8 µM
same,GI50,[14],2.37 µM
same,TGI,[14],7.09 µM
same,GI50,[15],2.8 µM
same,TGI,[15],9.95 µM
same,GI50,[16],2.66 µM
same,TGI,[16],8.64 µM
same,GI50,[17],2.15 µM
same,TGI,[17],8.35 µM
same,GI50,[18],2.52 µM
same,TGI,[18],12.8 µM
same,GI50,[19],1.92 µM
same,TGI,[19],5.97 µM
same,GI50,[20],1.9 µM
same,TGI,[20],4.3 µM
same,GI50,[21],2.48 µM
same,TGI,[21],7.09 µM
same,GI50,[22],3.18 µM
same,TGI,[22],13.7 µM
same,GI50,[23],2.42 µM
same,TGI,[23],6.18 µM
same,GI50,[24],3.34 µM
same,TGI,[24],14.8 µM
same,GI50,[25],2.19 µM
same,TGI,[25],6.21 µM
same,GI50,[26],2.72 µM
same,TGI,[26],9.54 µM
same,GI50,[27],2.2 µM
same,TGI,[27],6.31 µM
same,GI50,[28],2.22 µM
same,TGI,[28],5.92 µM
same,GI50,[29],1.72 µM
same,TGI,[29],5.94 µM
same,GI50,[30],2.68 µM
same,TGI,[30],10.4 µM
same,GI50,[31],2.51 µM
same,TGI,[31],8.98 µM
same,GI50,[32],2.81 µM
same,TGI,[32],8.21 µM
same,GI50,[33],2.37 µM
same,TGI,[33],5.79 µM
same,GI50,[34],2.71 µM
same,TGI,[34],10.7 µM
same,GI50,[35],3.66 µM
same,TGI,[35],10.7 µM
same,GI50,[36],1.92 µM
same,TGI,[36],5.68 µM
same,GI50,[37],2.31 µM
same,TGI,[37],6.63 µM
same,GI50,[38],2.73 µM
same,TGI,[38],9.02 µM
same,GI50,[39],2.23 µM
same,TGI,[39],6.22 µM
same,GI50,[40],2.91 µM
same,TGI,[40],16.2 µM
same,GI50,[41],2.41 µM
same,TGI,[41],5.95 µM
same,GI50,[42],2.08 µM
same,TGI,[42],5.01 µM
same,GI50,[43],3.07 µM
same,TGI,[43],13.8 µM
same,GI50,[44],2.71 µM
same,TGI,[44],13 µM
same,GI50,[45],2.15 µM
same,TGI,[45],5.36 µM
same,GI50,[46],2.63 µM
same,TGI,[46],> 100 µM
same,GI50,[47],2.27 µM
same,TGI,[47],7.69 µM
same,GI50,[48],2.89 µM
same,TGI,[48],11.6 µM
same,GI50,[49],3.09 µM
same,TGI,[49],11.9 µM
same,GI50,[50],2.1 µM
same,TGI,[50],5.84 µM
same,GI50,[51],2.84 µM
same,TGI,[51],12.6 µM
same,GI50,[52],2.54 µM
same,TGI,[52],7.24 µM
same,GI50,[53],3.02 µM
same,TGI,[53],11.4 µM
